Laboratory results published in publication PMC11323699, “The CD47/TSP-1 axis: a promising avenue for ovarian cancer treatment and biomarker research” (Molecular Cancer, 2024).

What was measured:
[1] = system: ID8 Trp53−/− Brca2−/− cells; assay: TAX2 efficacy alone or in sequential combination with olaparib, metastatic peritoneal carcinomatosis model; format: in vivo, C57BL/6 J mice; details: for Mouse survival, prolonged olaparib design: from day 7 post inoculation olaparib 50 mg/kg per os daily 5 weeks, then TAX2 30 mg/kg IV three times a week, n = 7–11 per group, p = 0.0014 post discontinuation, median survival p = 0.0205; for Animal survival versus controls (Kaplan–Meier): same regimens as Fig. 6b, Gehan–Breslow–Wilcoxon test, TAX2 p = 0.0347 vs controls; for Median survival: treatment from day after IP inoculation, TAX2 30 mg/kg IV 3 times weekly for 6 weeks or olaparib 50 mg/kg per os daily for 2 weeks, n = 9–19 per group, end point 20% body weight gain
Experimental: Eight-week-old C57BL/6 J mice were IP injected with 2 × 10^6 ID8 Trp53^−/− Brca2^−/− cells in 300 µL HBSS. For mouse treatments, TAX2 peptide was IV injected at 30 to 100 mg/kg, three times a week; olaparib (catalog no. M1664, AbMole, TX, USA) was given per os at a 50 mg/kg BW dose, daily. Two different sequential treatments were performed. In the first one, mice were treated one day after tumor inoculation with olaparib for 2 weeks followed by 4 weeks of TAX2. In the second one, mice were randomized 7 days after tumor inoculation and first treated with olaparib daily for 5 weeks or an identical volume of olaparib vehicle composed of 10% (2-hydroxypropyl)-β-cyclodextrin and 10% DMSO in D-PBS buffer. Mice were then sequentially treated with TAX2 for a maximum of 3 weeks. […] Mice were weighed twice or thrice a week and abdominal distension was measured using a digital caliper. Tumor burden was monitored using body weight change as a measure of ascitic fluid buildup post inoculation as previously described in the same model. Gain of 20% body weight was considered as the end point for survival analysis. In this orthotopic model, it is impossible to determine whether the absence of tumor uptake is treatment related or not. Therefore, mice showing no signs of tumor development (carcinosis, nodules, or ascites) at the time of euthanasia were excluded to avoid misinterpretation of the results.
Two-tailed Pearson and Spearman tests were used to assess the correlation between two linear or monotonic variables, respectively, and Mann–Whitney test was used where appropriate. Mouse survival curves were generated using Kaplan–Meier analysis with Gehan–Breslow–Wilcoxon tests as previously reported for ID8 syngeneic model. All graphs and statistics were generated with Prism (GraphPad Software, La Jolla, CA) using the statistical tests and sample sizes indicated in the figure legends.

[2] = system: ID8 Trp53−/− Brca2−/− ovarian carcinoma cells; details: mouse, in vivo, 10 mg/kg
Experimental: After 5 (IP model) or 10 (SC model) weeks of tumor growth, mice received an IV bolus dose of TAX2-Cy5 at 10 mg/kg BW in injectable saline solution. After in vivo imaging and mouse euthanasia, subcutaneous tumor or peritoneal tumor mass and metastatic nodules, were collected and imaged with instrument sensitivity set to “Normal” using the same protocol as described above for healthy mice. TAX2-Cy5 concentration was calculated as described above.

[3] = Toxicology and safety pharmacology studies in dogs; details: beagle dogs, data not shown
[4] = Toxicology and safety pharmacology studies in rats; details: Sprague–Dawley rats, data not shown

## CC(C)C[C@@H]1NC(=O)[C@H](CC(C)C)NC(=O)[C@H](CCC(N)=O)NC(=O)[C@H](CO)NC(=O)[C@H](C(C)C)NC(=O)[C@H](CCC(=O)O)NC(=O)[C@@H](N)CSSC[C@@H](C(=O)O)NC(=O)[C@H](C)NC(=O)[C@H](CC(=O)O)NC(=O)CNC(=O)[C@H](CCCCN)NC1=O [TAX2]
[1]; TAX2 30 mg/kg IV 3 times weekly for 6 weeks
  Mice surviving for the duration of the experimental protocol (weak peritoneal carcinomatosis): 1 out of 9
[1]
  Mouse survival, prolonged olaparib design: further improved survival
  Animal survival versus controls (Kaplan–Meier): modestly but significantly extended the survival rate
[1]; control 38 days
  Median survival: 44 days
[2]
  Localization at tumor sites: localization of TAX2 at tumor sites
[3]
  Tolerability after systemic administration: very well tolerated
[4]
  Tolerability after systemic administration: very well tolerated

## O=C(c1cc(Cc2n[nH]c(=O)c3ccccc23)ccc1F)N1CCN(C(=O)C2CC2)CC1 [olaparib]
[1]
  Mouse survival, prolonged olaparib design: increased mouse survival
  Animal survival versus controls (Kaplan–Meier): failed to improve animal survival
[1]; olaparib 50 mg/kg per os daily for 2 weeks, n = 20, tumor burden by body weight change
  Mice exhibiting no response to olaparib (tumor burden): 75%
[1]; olaparib alone 50 mg/kg per os daily for 2 weeks, unresponsive mice n = 14, control 38 days
  Median survival of olaparib-resistant mice: 41 days
[1]; control 38 days
  Median survival: 43 days
